Data from patent publication US6737383B1, “Herbicidal oxadiazolidines” (priority 1999, dated 2004).

How the values were obtained:
rice = test: Test B flood test rice; assay type: in vivo, Oryza sativa
Outline: (§1)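 Plants were grown to the 2-leaf stage before treatment with test chemical, then held in a greenhouse for twelve to sixteen days. Injury was visually rated against untreated controls on a 0–10 scale, where 0 is no effect and 10 is complete control.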

smallflower flatsedge = test: Test B flood test smallflower flatsedge; assay type: in vivo, Cyperus difformis
Outline: as §1

duck salad = test: Test B flood test duck salad; assay type: in vivo, Heteranthera limosa
Outline: as §1

bamyardgrass = test: Test B flood test barnyardgrass; assay type: in vivo, Echinochloa crus-galli
Outline: as §1

[1] = Rate 62 g/ha, flood test species, Pre-emergence, visual evaluation after twelve to sixteen days
[2] = Rate 125 g/ha, Pre-emergence, flood test species, scale 0 to 10 where 0 is no effect and 10 is complete control
[3] = Rate 250 g/ha, Pre-emergence, flood-test species, scale 0 to 10, 0 is no effect, 10 is complete control
[4] = Rate 500 g/ha, Pre-emergence, flood test species, scale 0 to 10 (0 no effect, 10 complete control)
[5] = Postemergence, Rate 62 g/ha, scale 0 to 10, 0 is no effect, 10 is complete control
[6] = Rate 125 g/ha, Postemergence section (flood test species), scale 0 to 10, 0 no effect, 10 complete control
[7] = Rate 500 g/ha, listed under Postemergence (flood test species), scale 0 to 10, 0 no effect, 10 complete control
[8] = flood test, listed under Postemergence, Rate 250 g/ha, scale 0 to 10, 0 no effect, 10 complete control

CC(C)N(C(=O)n1oc(=O)n(Cc2cccnc2)c1=O)c1ccc(F)cc1 [Compound 366]
0: Plant response rating, Rice (0 to 10 scale, 0 is no effect, 10 is complete control) (rice; [1]) | Rice plant response rating (rice; [2]) | Rice plant response rating (rice; [3]) | Rice plant response rating (rice; [4]) | Plant response rating, S. Flatsedge (0 to 10 scale, 0 is no effect, 10 is complete control) (smallflower flatsedge; [1]) | S. Flatsedge plant response rating (smallflower flatsedge; [2]) | S. Flatsedge plant response rating (smallflower flatsedge; [3]) | S. Flatsedge plant response rating (smallflower flatsedge; [4]) | Plant response rating, Ducksalad (0 to 10 scale, 0 is no effect, 10 is complete control) (duck salad; [1]) | Ducksalad plant response rating (duck salad; [2]) | Ducksalad plant response rating (duck salad; [3]) | Ducksalad plant response rating (duck salad; [4]) | Plant response rating, Barnyardgrass (0 to 10 scale, 0 is no effect, 10 is complete control) (bamyardgrass; [1]) | Barnyardgrass plant response rating (bamyardgrass; [2]) | Barnyardgrass plant response rating (bamyardgrass; [3]) | Barnyardgrass plant response rating (bamyardgrass; [4])

CCN(CC)C(=O)n1oc(=O)n(Cc2ccccc2C)c1=O [Compound 84]
0: Rice plant response rating (rice; [5]) | Rice plant response rating (rice; [6]) | Rice plant response rating (rice; [7]) | Rice plant response rating (rice; [8]) | S. Flatsedge plant response rating (smallflower flatsedge; [5]) | S. Flatsedge plant response rating (smallflower flatsedge; [6]) | S. Flatsedge plant response rating (smallflower flatsedge; [7]) | S. Flatsedge plant response rating (smallflower flatsedge; [8]) | Ducksalad plant response rating (duck salad; [5]) | Ducksalad plant response rating (duck salad; [6]) | Ducksalad plant response rating (duck salad; [7]) | Ducksalad plant response rating (duck salad; [8]) | Barnyardgrass plant response rating (bamyardgrass; [5]) | Barnyardgrass plant response rating (bamyardgrass; [6]) | Barnyardgrass plant response rating (bamyardgrass; [7]) | Barnyardgrass plant response rating (bamyardgrass; [8])
